≈ marks a conversion by molar mass, not a printed value.
Test system: RPMI 8226
Assay: Multiple myeloma cell growth inhibition, MTT, 72 h
Type: cell-based
Conditions: Homo sapiens
Method: Multiple myeloma cell lines: RPMI8226 (multiple myeloma), purchased from Fuxiang Bio-tech Co. Ltd., Shanghai, China.
(§1) 6000 well-growing cells were obtained and inoculated into wells of a 96-well cell culture plate. […] On the next day, the 1-oxo/acylated-14-acylated oridonin derivatives of different concentrations were added and mixed uniformly. The plate was placed in a carbon dioxide cell incubator (5% CO2) at 37° C. and incubated for 72 hours. Then the viable cell concentration was determined by MTT method.

| IC50 | IC90 | SMILES |
| --- | --- | --- |
| 1.34 µg/mL (≈ 2.18 µM) | 2.95 µg/mL (≈ 4.81 µM) | C=C1C(=O)[C@]23[C@H](OC(=O)C4CCN(S(=O)(=O)c5ccccc5)CC4)[C@H]1CC[C@H]2[C@@]12CO[C@@]3(O)[C@@H](O)[C@@H]1C(C)(C)CCC2=O [BS-OR-032] |

Test system: NB4
Assay: Leukemia cell growth inhibition, MTT, 72 h
Type: cell-based, human
Conditions: Homo sapiens, NB-4; 72 h, MTT
Source text: (§2) Leukemia cell lines: leukemia cell lines: K562/adr (drug-resistant, chronic myeloid leukemia, CML), NB4 (acute promyelocytic leukemia, AML), Kasumi-1 (acute myeloid leukemia M2 type, AML-M2), Jurkat (acute lymphoblastic leukemia, ALL), all of which were donated by Cancer Research Institute of Zhejiang University, China; and H9 (acute lymphoblastic leukemia, ALL), which was purchased from China Center for Type Culture Collection.
as §1, with “6000 well-growing leukemia cells were” for “6000 well-growing cells were”, “C. and was incubated for” for “C. and incubated for”

| IC50 | IC90 | SMILES |
| --- | --- | --- |
| 4.09 µg/mL (≈ 6.66 µM) | 9.77 µg/mL (≈ 15.9 µM) | C=C1C(=O)[C@]23[C@H](OC(=O)C4CCN(S(=O)(=O)c5ccccc5)CC4)[C@H]1CC[C@H]2[C@@]12CO[C@@]3(O)[C@@H](O)[C@@H]1C(C)(C)CCC2=O [BS-OR-032] |

Test system: H9
Assay: Leukemia cell growth inhibition, MTT, 72 h
Type: cell-based, human
Conditions: Homo sapiens, H9; 72 h, MTT
Source text: as §2
as §1, with “6000 well-growing leukemia cells were” for “6000 well-growing cells were”, “C. and was incubated for” for “C. and incubated for”

| IC50 | IC90 | SMILES |
| --- | --- | --- |
| 6.71 µg/mL (≈ 10.9 µM) | 12.7 µg/mL (≈ 20.7 µM) | C=C1C(=O)[C@]23[C@H](OC(=O)C4CCN(S(=O)(=O)c5ccccc5)CC4)[C@H]1CC[C@H]2[C@@]12CO[C@@]3(O)[C@@H](O)[C@@H]1C(C)(C)CCC2=O [BS-OR-032] |

Test system: Jurkat
Assay: Leukemia cell growth inhibition, MTT, 72 h
Type: cell-based, human
Conditions: Homo sapiens, Jurkat; 72 h, MTT
Source text: as §2
as §1, with “6000 well-growing leukemia cells were” for “6000 well-growing cells were”, “C. and was incubated for” for “C. and incubated for”

| IC50 | IC90 | SMILES |
| --- | --- | --- |
| 0.93 µg/mL (≈ 1.52 µM) | 6.15 µg/mL (≈ 10 µM) | C=C1C(=O)[C@]23[C@H](OC(=O)C4CCN(S(=O)(=O)c5ccccc5)CC4)[C@H]1CC[C@H]2[C@@]12CO[C@@]3(O)[C@@H](O)[C@@H]1C(C)(C)CCC2=O [BS-OR-032] |

Test system: MGC-803
Assay: Solid tumor cell growth inhibition, MTT, 72 h
Type: cell-based, human
Conditions: Homo sapiens, MGC-803; 72 h, MTT
Method: (§3) 6000 well-growing human solid tumor cells were obtained and inoculated into wells of a 96-well cell culture plate. The culture medium was DMEM High Glucose cell culture medium containing 10% fetal bovine serum. The plate was placed in a carbon dioxide cell incubator (5% CO2) at 37° C. and incubated for 24 hours. After added with 1-oxo/acylated-14-acylated oridonin derivatives of different concentration and mixed uniformly, the plate was placed in a carbon dioxide cell incubator (5% CO2) at 37° C. and incubated for 72 hours. Then the viable cell concentration was determined by MTT method.

| IC50 | IC90 | SMILES |
| --- | --- | --- |
| 12.7 µg/mL (≈ 20.7 µM) | > 16 µg/mL | C=C1C(=O)[C@]23[C@H](OC(=O)C4CCN(S(=O)(=O)c5ccccc5)CC4)[C@H]1CC[C@H]2[C@@]12CO[C@@]3(O)[C@@H](O)[C@@H]1C(C)(C)CCC2=O [BS-OR-032] |

Test system: Hep-2
Assay: Solid tumor cell growth inhibition, MTT, 72 h
Type: cell-based, human
Conditions: Homo sapiens, HEp-2; 72 h, MTT
Method: as §3

| IC50 | IC90 | SMILES |
| --- | --- | --- |
| > 16 µg/mL | > 16 µg/mL | C=C1C(=O)[C@]23[C@H](OC(=O)C4CCN(S(=O)(=O)c5ccccc5)CC4)[C@H]1CC[C@H]2[C@@]12CO[C@@]3(O)[C@@H](O)[C@@H]1C(C)(C)CCC2=O [BS-OR-032] |

Test system: Hela
Assay: Solid tumor cell growth inhibition, MTT, 72 h
Type: cell-based, human
Conditions: Homo sapiens, HeLa; 72 h, MTT
Method: as §3

| IC50 | IC90 | SMILES |
| --- | --- | --- |
| 2.63 µg/mL (≈ 4.29 µM) | 5.67 µg/mL (≈ 9.24 µM) | C=C1C(=O)[C@]23[C@H](OC(=O)C4CCN(S(=O)(=O)c5ccccc5)CC4)[C@H]1CC[C@H]2[C@@]12CO[C@@]3(O)[C@@H](O)[C@@H]1C(C)(C)CCC2=O [BS-OR-032] |

Test system: CNE
Assay: Solid tumor cell growth inhibition, MTT, 72 h
Type: cell-based, human
Conditions: Homo sapiens, CNE; 72 h, MTT
Method: as §3

| IC50 | IC90 | SMILES |
| --- | --- | --- |
| > 16 µg/mL | > 16 µg/mL | C=C1C(=O)[C@]23[C@H](OC(=O)C4CCN(S(=O)(=O)c5ccccc5)CC4)[C@H]1CC[C@H]2[C@@]12CO[C@@]3(O)[C@@H](O)[C@@H]1C(C)(C)CCC2=O [BS-OR-032] |

Test system: MG-63
Assay: Solid tumor cell growth inhibition, MTT, 72 h
Type: cell-based
Conditions: Homo sapiens
Method: as §3

| IC50 | IC90 | SMILES |
| --- | --- | --- |
| 0.98 µg/mL (≈ 1.6 µM) | 1.97 µg/mL (≈ 3.21 µM) | C=C1C(=O)[C@]23[C@H](OC(=O)C4CCN(S(=O)(=O)c5ccccc5)CC4)[C@H]1CC[C@H]2[C@@]12CO[C@@]3(O)[C@@H](O)[C@@H]1C(C)(C)CCC2=O [BS-OR-032] |

Test system: PANC-1
Assay: Solid tumor cell growth inhibition, MTT, 72 h
Type: cell-based
Conditions: Homo sapiens
Method: as §3

| IC50 | IC90 | SMILES |
| --- | --- | --- |
| 3.61 µg/mL (≈ 5.88 µM) | 7.88 µg/mL (≈ 12.8 µM) | C=C1C(=O)[C@]23[C@H](OC(=O)C4CCN(S(=O)(=O)c5ccccc5)CC4)[C@H]1CC[C@H]2[C@@]12CO[C@@]3(O)[C@@H](O)[C@@H]1C(C)(C)CCC2=O [BS-OR-032] |

Test system: U87-MG
Assay: Solid tumor cell growth inhibition, MTT, 72 h
Type: cell-based
Conditions: Homo sapiens, U-87 MG
Method: as §3

| IC50 | IC90 | SMILES |
| --- | --- | --- |
| 1.26 µg/mL (≈ 2.05 µM) | 4.56 µg/mL (≈ 7.43 µM) | C=C1C(=O)[C@]23[C@H](OC(=O)C4CCN(S(=O)(=O)c5ccccc5)CC4)[C@H]1CC[C@H]2[C@@]12CO[C@@]3(O)[C@@H](O)[C@@H]1C(C)(C)CCC2=O [BS-OR-032] |

Test system: PC-3
Assay: Solid tumor cell growth inhibition, MTT, 72 h
Type: cell-based
Conditions: Homo sapiens
Method: as §3

| IC50 | IC90 | SMILES |
| --- | --- | --- |
| 3.07 µg/mL (≈ 5 µM) | 5.41 µg/mL (≈ 8.81 µM) | C=C1C(=O)[C@]23[C@H](OC(=O)C4CCN(S(=O)(=O)c5ccccc5)CC4)[C@H]1CC[C@H]2[C@@]12CO[C@@]3(O)[C@@H](O)[C@@H]1C(C)(C)CCC2=O [BS-OR-032] |

Test system: Hep G2
Assay: Solid tumor cell growth inhibition, MTT, 72 h
Type: cell-based
Conditions: Homo sapiens, HepG2
Method: as §3

| IC50 | IC90 | SMILES |
| --- | --- | --- |
| 3.17 µg/mL (≈ 5.17 µM) | ≥ 17.2 µg/mL | C=C1C(=O)[C@]23[C@H](OC(=O)C4CCN(S(=O)(=O)c5ccccc5)CC4)[C@H]1CC[C@H]2[C@@]12CO[C@@]3(O)[C@@H](O)[C@@H]1C(C)(C)CCC2=O [BS-OR-032] |

Test system: CaEs-17
Assay: Solid tumor cell growth inhibition, MTT, 72 h
Type: cell-based
Conditions: Homo sapiens, CaEs17
Method: as §3

| IC50 | IC90 | SMILES |
| --- | --- | --- |
| 1.62 µg/mL (≈ 2.64 µM) | 11.7 µg/mL (≈ 19.1 µM) | C=C1C(=O)[C@]23[C@H](OC(=O)C4CCN(S(=O)(=O)c5ccccc5)CC4)[C@H]1CC[C@H]2[C@@]12CO[C@@]3(O)[C@@H](O)[C@@H]1C(C)(C)CCC2=O [BS-OR-032] |

Test system: RKO
Assay: Solid tumor cell growth inhibition, MTT, 72 h
Type: cell-based
Conditions: Homo sapiens
Method: as §3

| IC50 | IC90 | SMILES |
| --- | --- | --- |
| 0.89 µg/mL (≈ 1.45 µM) | 1.99 µg/mL (≈ 3.24 µM) | C=C1C(=O)[C@]23[C@H](OC(=O)C4CCN(S(=O)(=O)c5ccccc5)CC4)[C@H]1CC[C@H]2[C@@]12CO[C@@]3(O)[C@@H](O)[C@@H]1C(C)(C)CCC2=O [BS-OR-032] |

Test system: A549
Assay: Solid tumor cell growth inhibition, MTT, 72 h
Type: cell-based
Conditions: Homo sapiens
Method: as §3

| IC50 | IC90 | SMILES |
| --- | --- | --- |
| 5.68 µg/mL (≈ 9.25 µM) | 9.98 µg/mL (≈ 16.3 µM) | C=C1C(=O)[C@]23[C@H](OC(=O)C4CCN(S(=O)(=O)c5ccccc5)CC4)[C@H]1CC[C@H]2[C@@]12CO[C@@]3(O)[C@@H](O)[C@@H]1C(C)(C)CCC2=O [BS-OR-032] |

Test system: SK-OV-3
Assay: Solid tumor cell growth inhibition, MTT, 72 h
Type: cell-based
Conditions: Homo sapiens, SK-OV-3; 72 h, MTT; read-out: IC50 SK-OV-3
Method: as §3

| IC50 | SMILES |
| --- | --- |
| 3.07 µg/mL (≈ 5 µM) | C=C1C(=O)[C@]23[C@H](OC(=O)C4CCN(S(=O)(=O)c5ccccc5)CC4)[C@H]1CC[C@H]2[C@@]12CO[C@@]3(O)[C@@H](O)[C@@H]1C(C)(C)CCC2=O [BS-OR-032] |

Same assay, conditions: Homo sapiens, SK-OV-3; 72 h, MTT; read-out: IC90 SK-OV-3

| IC90 | SMILES |
| --- | --- |
| 5.41 µg/mL (≈ 8.81 µM) | C=C1C(=O)[C@]23[C@H](OC(=O)C4CCN(S(=O)(=O)c5ccccc5)CC4)[C@H]1CC[C@H]2[C@@]12CO[C@@]3(O)[C@@H](O)[C@@H]1C(C)(C)CCC2=O [BS-OR-032] |

Test system: Becap-37
Assay: Solid tumor cell growth inhibition, MTT, 72 h
Type: cell-based
Conditions: Homo sapiens
Method: as §3

| IC50 | IC90 | SMILES |
| --- | --- | --- |
| 2.93 µg/mL (≈ 4.77 µM) | 10.5 µg/mL (≈ 17.1 µM) | C=C1C(=O)[C@]23[C@H](OC(=O)C4CCN(S(=O)(=O)c5ccccc5)CC4)[C@H]1CC[C@H]2[C@@]12CO[C@@]3(O)[C@@H](O)[C@@H]1C(C)(C)CCC2=O [BS-OR-032] |

Test system: K562/ADR
Assay: Leukemia cell growth inhibition, MTT, 72 h
Type: cell-based
Conditions: Homo sapiens
Source text: as §2
as §1, with “6000 well-growing leukemia cells were” for “6000 well-growing cells were”, “C. and was incubated for” for “C. and incubated for”

| IC50 | IC90 | SMILES |
| --- | --- | --- |
| 1.09 µg/mL (≈ 1.78 µM) | 2.97 µg/mL (≈ 4.84 µM) | C=C1C(=O)[C@]23[C@H](OC(=O)C4CCN(S(=O)(=O)c5ccccc5)CC4)[C@H]1CC[C@H]2[C@@]12CO[C@@]3(O)[C@@H](O)[C@@H]1C(C)(C)CCC2=O [BS-OR-032] |

Test system: Kasumi-1
Assay: Leukemia cell growth inhibition, MTT, 72 h
Type: cell-based
Conditions: Homo sapiens
Source text: as §2
as §1, with “6000 well-growing leukemia cells were” for “6000 well-growing cells were”, “C. and was incubated for” for “C. and incubated for”

| IC50 | IC90 | SMILES |
| --- | --- | --- |
| 1.5 µg/mL (≈ 2.44 µM) | 2.92 µg/mL (≈ 4.76 µM) | C=C1C(=O)[C@]23[C@H](OC(=O)C4CCN(S(=O)(=O)c5ccccc5)CC4)[C@H]1CC[C@H]2[C@@]12CO[C@@]3(O)[C@@H](O)[C@@H]1C(C)(C)CCC2=O [BS-OR-032] |

Source: US9902736B2, “1-oxo/acylation-14-acylated oridonin derivative, preparation method therefor and application thereof” (HANGZHOU BENSHENG PHARMACEUTICAL CO., LTD., priority 2012, dated 2018)
